ChEMBL document CHEMBL1121514, “6-(Phenylthio)-substituted 2,3,4,5-tetrahydro-1H-3-benzazepines, a novel class of dopamine receptor antagonists and neuroleptics” (J Med Chem, 1980)
Blank lines part the entries; values can stand above or below the compound they belong to.

Tests used:
[1] = test system: Rattus norvegicus; assay: Effective Dose for catalepsy production in naive rats when administered intraperitoneal; format: functional; conditions: ip
[2] = target: Adenylate cyclase; assay: Inhibitory concentration against Dopamine sensitive adenylate cyclase in rats; format: functional
[3] = target: Adenylate cyclase; assay: Inhibitory activity against Dopamine sensitive adenylate cyclase in rats
[4] = test system: Rattus norvegicus; assay: Effective Dose for avoidance acquisition in naive rats when administered intraperitoneal; format: functional; conditions: ip
[5] = test system: Canis lupus familiaris; assay: % Change in renal vascular resistance in dogs when administered at dose 3 ug/kg intravenously
[6] = test system: Canis lupus familiaris; assay: % Change in renal vascular resistance in dogs when administered at dose 15 ug/kg intravenously

Compound: CN1CCc2c(Cl)c(O)c(O)c(Sc3ccccc3)c2CC1
ED50 [1]: 3 mg/kg | IC50 [2]: 360 nM | Ki [3]: 33 nM | ED50 [4]: 0.08 mg/kg

Compound: Br.Oc1cc2c(c(Sc3ccccc3)c1O)CCNCC2
ED50 [1]: 64.6 mg/kg | IC50 [2]: 2700 nM | Ki [3]: 250 nM | ED50 [4]: 4.9 mg/kg

Compound: Br.CN1CCc2cc(O)c(O)c(Sc3ccccc3)c2CC1
ED50 [1]: 5.6 mg/kg | IC50 [2]: 240 nM | Ki [3]: 22 nM | ED50 [4]: 0.5 mg/kg

IC50 [2]: 1300 nM | Ki [3]: 118 nM
Compound: CN(C)CCCN1c2ccccc2Sc2ccc(Cl)cc21 [CHLORPROMAZINE]
ED50 [1]: 4.2 mg/kg | ED50 [4]: 1.5 mg/kg

Compound: NCCc1ccc(O)c(O)c1 [DOPAMINE]
Change [5]: 8%

Compound: H-RPPGFSPFR-OH [BRADYKININ]
Change [5]: -19% | Change [6]: -37%
